{"source": "patent US20090137565A1", "about": "“Method for treatment of movement disorders” (The Trustees of Columbia University in the City of New York, priority 2004, published 2009)", "tested_on": "severe alcohol-responsive posthypoxic myoclonus", "assay": "Single-patient open-label dose-finding trial of GHB, blinded Unified Myoclonus Rating Scale (UMRS)", "format": "in vivo, human", "settings": "for UMRS I (Self Assessment) score: max 44, 0 gm score 33; for UMRS VIII (Severity) score: max 3, 0 gm score 2; for UMRS I (Global Disability) score / UMRS VI (MD Global Disab.) score: max 4, 0 gm score 3; for UMRS III (Stimulus-Sens.) score: max 17, 0 gm score 12; for UMRS V (Funct. Performance) score: max 20, 0 gm score 20; for UMRS II (Myoclonus @ Rest) score: max 128, 0 gm score 21; for UMRS IV (Action Myoclonus) score: max 160, 0 gm score 108; for UMRS VII (Neg. Myoclonus) score: present (1) or absent (0), 0 gm score 1", "method": "An open-label, dose-finding, blinded rating trial of GHB in a single patient with severe, debilitating alcohol-responsive posthypoxic myoclonus refractory to treatment with standard anti-myoclonic agents was conduced. […] Intensity and severity of myoclonus was measured using the Unified Myoclonus Rating Scale (UMRS), a non-invasive clinical rating scale. In addition, the patient was videotaped while the UMRS was performed, so that myoclonus could be scored by a blinded rater.\nGiven the dramatic response to alcohol, a single-patient, open-label, dose-ranging trial to assess the tolerability and efficacy of GHB (Xyrem®, Orphan Medical, Inc.) as a treatment for alcohol-responsive posthypoxic myoclonus was designed, which was approved by The Columbia University Medical Center Institutional Review Board. After obtaining informed consent, they were videotaped during performance of the Unified Myoclonus Rating Scale (UMRS). The UMRS is a validated clinical rating instrument that measures the severity and intensity of myoclonus and has been used in other trials of anti-myoclonic agents. Frucht S. J., et al., Adv Neurology Vol. 89 Lippincott Williams and Wilkins, Philadelphia, 2002:361-376. The scale consists of eight sections: section I: patient questionnaire (11 items); section II: myoclonus at rest (frequency and amplitude, 16 items); section III: stimulus-sensitive myoclonus (17 items); section IV: severity of myoclonus with action (frequency and amplitude, 20 items); section V: performance on functional tests (5 items); section VI: physician rating of patient's global disability (1 item); section VII: presence of negative myoclonus (1 item); section VIII: severity of negative myoclonus (1 item). Each item is rated on a scale of 0 to 4, with higher scores assigned to myoclonus of greater severity or frequency. For section III stimulus-sensitivity is either present (1) or absent (0); section VII negative myoclonus either present (1) or absent (0); and section VIII negative myoclonus absent (0) to severe (3).\nAll office visits and the UMRS scale were performed by the supervisory physician. The patient came to the office for five visits, each separated by two weeks (time 0, 2 weeks, 4 weeks, 6 weeks and 8 weeks). At each visit, the physician examined the patient, and inquired about any adverse events. The physician performed the UMRS while the patient was videotaped. Xyrem® was dispensed by the physician at each visit.\nAt the initial visit the UMRS was performed and videotaped, 1 gm of GHB was administered by mouth, and they were monitored in the office for one hour. They then took 1 gm twice daily for two weeks, at which time they returned to the office. One hour after receiving 2 grams of GHB, the UMRS was performed and videotaped and for the next two weeks they took 2 grams twice daily. Two weeks later, the UMRS was performed and videotaped one hour after receiving 3 grams of GHB, and after two weeks of 3 grams twice daily, the same procedure was performed after receiving 4 grams in the office. After taking 4 grams twice daily for two weeks, they returned for UMRS videotaping, and the decision was made to continue the target dose of 4 gm twice daily.\nA movement disorder neurologist blinded to the trial design scored videotapes of the baseline visit, 2 gm, 3 gm, 4 gm (first) and 4 gm (second) visits in random order. The blinded rater was not provided with treatment scores of section I of the UMRS (patient self-assessment) in order to maintain the rating blind. Scores for each section were calculated as described previously. Frucht S. J., et al., Adv Neurology Vol. 89. Lippincott Williams and Wilkins, Philadelphia, 2002:361-376.", "data": [{"smiles": "O=C([O-])CCCO.[Na+]", "note": "[GHB, 4-hydroxybutanoic acid monosodium salt]", "values": [{"measurement": "resting and stimulus-sensitive myoclonus", "setting": "2 gm twice daily", "result": "markedly improved"}, {"measurement": "UMRS I (Self Assessment) score", "setting": "2 gm, 1 h after oral dose", "result": 31}, {"measurement": "UMRS VIII (Severity) score", "setting": "2 gm", "result": 2}, {"measurement": "UMRS I (Global Disability) score", "setting": "2 gm", "result": 3}, {"measurement": "UMRS VI (MD Global Disab.) score", "setting": "2 gm", "result": 2}, {"measurement": "UMRS III (Stimulus-Sens.) score", "setting": "2 gm", "result": 5}, {"measurement": "UMRS V (Funct. Performance) score", "setting": "2 gm", "result": 10}, {"measurement": "UMRS II (Myoclonus @ Rest) score", "setting": "2 gm", "result": 8}, {"measurement": "UMRS IV (Action Myoclonus) score", "setting": "2 gm", "result": 70}, {"measurement": "UMRS VII (Neg. Myoclonus) score", "setting": "2 gm", "result": 1}, {"measurement": "resting and stimulus-sensitive myoclonus", "setting": "3 gm twice daily", "result": "virtually disappeared"}, {"measurement": "UMRS VIII (Severity) score", "setting": "3 gm", "result": 2}, {"measurement": "UMRS I (Global Disability) score", "setting": "3 gm", "result": 2}, {"measurement": "UMRS VI (MD Global Disab.) score", "setting": "3 gm", "result": 2}, {"measurement": "UMRS III (Stimulus-Sens.) score", "setting": "3 gm", "result": 1}, {"measurement": "UMRS V (Funct. Performance) score", "setting": "3 gm", "result": 8}, {"measurement": "UMRS I (Self Assessment) score", "setting": "3 gm", "result": 25}, {"measurement": "UMRS II (Myoclonus @ Rest) score", "setting": "3 gm", "result": 3}, {"measurement": "UMRS IV (Action Myoclonus) score", "setting": "3 gm", "result": 64}, {"measurement": "UMRS VII (Neg. Myoclonus) score", "setting": "3 gm", "result": 1}, {"measurement": "UMRS VIII (Severity) score", "setting": "4 gm (2nd visit)", "result": 2}, {"measurement": "UMRS I (Global Disability) score", "setting": "4 gm (2nd visit)", "result": 2}, {"measurement": "UMRS VI (MD Global Disab.) score", "setting": "4 gm (2nd visit)", "result": 2}, {"measurement": "UMRS III (Stimulus-Sens.) score", "setting": "4 gm (2nd visit)", "result": 3}, {"measurement": "UMRS V (Funct. Performance) score", "setting": "4 gm (2nd visit)", "result": 4}, {"measurement": "UMRS I (Self Assessment) score", "setting": "4 gm (2nd visit)", "result": 15}, {"measurement": "UMRS II (Myoclonus @ Rest) score", "setting": "4 gm (2nd visit)", "result": 1}, {"measurement": "UMRS IV (Action Myoclonus) score", "setting": "4 gm (2nd visit)", "result": 58}, {"measurement": "UMRS VII (Neg. Myoclonus) score", "setting": "4 gm (2nd visit)", "result": 1}, {"measurement": "UMRS VIII (Severity) score", "setting": "4 gm", "result": 2}, {"measurement": "UMRS I (Global Disability) score", "setting": "4 gm", "result": 2}, {"measurement": "UMRS VI (MD Global Disab.) score", "setting": "4 gm", "result": 2}, {"measurement": "UMRS III (Stimulus-Sens.) score", "setting": "4 gm", "result": 1}, {"measurement": "UMRS V (Funct. Performance) score", "setting": "4 gm", "result": 7}, {"measurement": "UMRS I (Self Assessment) score", "setting": "4 gm", "result": 18}, {"measurement": "UMRS II (Myoclonus @ Rest) score", "setting": "4 gm", "result": 1}, {"measurement": "UMRS IV (Action Myoclonus) score", "setting": "4 gm", "result": 53}, {"measurement": "UMRS VII (Neg. Myoclonus) score", "setting": "4 gm", "result": 1}, {"measurement": "myoclonus at rest and stimulus-sensitive myoclonus", "setting": "UMRS and blinded video rating, divided doses during the day", "result": "complete resolution"}, {"measurement": "duration of benefit", "setting": "after the first 2 gm dose", "result": "approximately 3 hours"}, {"measurement": "time at which benefit peaked", "setting": "after the first 2 gm dose", "result": "one"}, {"measurement": "time to marked diminution of myoclonus at rest and stimulus-sensitivity", "setting": "after the first 2 gm dose", "result": "≤ 20", "unit": "min"}, {"measurement": "change in clinical examination", "setting": "after the initial 1 gm dose", "result": "Little difference"}, {"measurement": "time of peak effect", "setting": "each dose greater than or equal to 2 gm", "result": "one"}, {"measurement": "negative myoclonus, blinded videotape review", "setting": "human, in vivo", "result": "did not confirm the examiner's impression that negative myoclonus improved"}, {"measurement": "improvement of functional performance (section V)", "setting": "writing, spiral copying, pouring, using a spoon", "result": 80, "unit": "%"}]}]}
